In patent US20050181376A1, “Antisense modulation of microsomal triglyceride transfer protein expression” (ISIS Pharmaceuticals, Inc., priority 2001, published 2005):
Strand notation (5' to 3'): a small letter for the sugar, then the base; units joined by * are phosphorothioate-linked, units joined directly phosphodiester-linked; [ ] holds rarer units or linkages, { } end groups; capitals alone tell only the bases. e = 2'-O-(2-methoxyethyl) (MOE); [5mC] = 5-methylcytosine; d = 2'-deoxy (DNA)

What follows are substances tested on human microsomal triglyceride transfer protein mRNA (assay: Antisense inhibition of human microsomal triglyceride transfer protein mRNA levels, quantitative real-time PCR). Details: averages from two experiments.
Further: test concentration or dose not given here.

Substance	% INHIB (inhibition of human microsomal triglyceride transfer protein mRNA levels)
144420 (eG*eA*eG*eG*eT*dG*dA*d[5mC]*dA*dG*d[5mC]*dA*dT*d[5mC]*d[5mC]*eA*e[5mC]*e[5mC]*eA*eG; antisense) [compound 144420]	21%
144421 (eA*eT*eG*eG*e[5mC]*dT*dT*d[5mC]*dT*dA*dA*dT*dG*dA*dG*eT*e[5mC]*eT*eG*eA; antisense) [compound 144421]	13%
144422 (e[5mC]*e[5mC]*eT*eG*eG*dA*dG*dG*dA*dT*dA*dA*dT*dG*d[5mC]*eT*eG*e[5mC]*eT*eG; antisense) [compound 144422]	37%
144423 (eA*eG*eT*eG*eT*d[5mC]*d[5mC]*d[5mC]*dA*dG*dT*dG*dA*dT*dG*eA*eT*e[5mC]*eA*eT; antisense) [compound 144423]	41%
144424 (eA*eG*e[5mC]*eA*eG*dA*dT*dA*d[5mC]*dA*dT*d[5mC]*d[5mC]*dT*dG*eG*eT*eG*eT*e[5mC]; antisense) [compound 144424]	23%
144425 (e[5mC]*e[5mC]*e[5mC]*eT*eT*d[5mC]*dT*d[5mC]*d[5mC]*dT*dG*d[5mC]*dT*dT*d[5mC]*eT*eG*e[5mC]*eA*eT; antisense) [compound 144425]	22%
144426 (eG*eA*eG*e[5mC]*eA*dG*dT*dG*dG*dT*dA*dG*d[5mC]*d[5mC]*dA*eG*eG*eT*eG*eG; antisense) [compound 144426]	22%
144427 (eT*eA*eA*eG*eG*dT*d[5mC]*dT*dT*d[5mC]*dT*dT*d[5mC]*dA*d[5mC]*e[5mC]*eT*e[5mC]*eA*eT; antisense) [compound 144427]	8%
144428 (eG*e[5mC]*eA*eG*e[5mC]*dT*dG*d[5mC]*dA*dG*d[5mC]*dA*dG*dT*dG*e[5mC]*eG*e[5mC]*eA*e[5mC]; antisense) [compound 144428]	19%
144429 (e[5mC]*eT*eT*eG*eA*d[5mC]*dG*dT*d[5mC]*d[5mC]*dA*dT*dG*dT*dA*eG*eG*eA*eT*eG; antisense) [compound 144429]	0%
144430 (e[5mC]*eT*eA*eT*eG*dT*dA*dG*d[5mC]*d[5mC]*dA*dG*dT*dG*dT*eA*eG*eG*e[5mC]*eA; antisense) [compound 144430]	0%
144431 (e[5mC]*eG*eA*eG*eT*dA*dG*dA*dG*dA*dA*dT*dG*dT*d[5mC]*eT*eA*eG*eG*e[5mC]; antisense) [compound 144431]	26%
144432 (eT*eA*e[5mC]*e[5mC]*eG*dT*dG*dA*dA*dG*dA*d[5mC]*d[5mC]*dA*dG*e[5mC]*e[5mC]*eT*eT*e[5mC]; antisense) [compound 144432]	0%
144433 (eA*eT*eT*eA*eA*dG*dG*d[5mC]*dT*dT*d[5mC]*d[5mC]*dA*dG*dT*e[5mC]*e[5mC]*eT*eT*eG; antisense) [compound 144433]	0%
144434 (e[5mC]*e[5mC]*e[5mC]*eT*eG*dG*dA*d[5mC]*d[5mC]*dT*d[5mC]*dT*dA*dT*dA*eT*eT*eG*eG*e[5mC]; antisense) [compound 144434]	0%
144435 (eG*eA*eT*eA*e[5mC]*d[5mC]*dA*d[5mC]*dA*dA*dG*d[5mC]*dT*dA*dA*eA*e[5mC]*eT*e[5mC]*e[5mC]; antisense) [compound 144435]	0%
144436 (eG*eA*eG*eG*eA*dG*dT*d[5mC]*d[5mC]*dA*d[5mC]*dT*dG*dT*dG*eA*eT*eG*eT*e[5mC]; antisense) [compound 144436]	29%
144437 (eG*eT*eA*e[5mC]*eT*dG*dG*dT*dT*dT*d[5mC]*d[5mC]*dA*dG*dG*e[5mC]*e[5mC]*eA*eG*e[5mC]; antisense) [compound 144437]	32%
144438 (eG*e[5mC]*eT*eT*e[5mC]*dA*dT*d[5mC]*d[5mC]*dT*dT*dG*dT*d[5mC]*d[5mC]*eA*eT*e[5mC]*eT*eG; antisense) [compound 144438]	53%
144439 (e[5mC]*eG*e[5mC]*eT*eG*dG*dA*dA*dG*dT*dA*d[5mC]*dT*dA*dT*e[5mC]*e[5mC]*eG*eG*e[5mC]; antisense) [compound 144439]	52%
144440 (eA*eA*eT*eA*eT*d[5mC]*dA*d[5mC]*dA*dG*dG*dT*d[5mC]*dA*dG*eT*eT*eT*e[5mC]*eA; antisense) [compound 144440]	40%

Substance	% INHIB (inhibition of human microsomal triglyceride transfer protein mRNA levels)
144441 (e[5mC]*eA*eT*eG*e[5mC]*d[5mC]*dA*d[5mC]*dA*dT*dT*dG*dT*dG*dT*e[5mC]*e[5mC]*e[5mC]*eT*eT; antisense) [compound 144441]	60%
144442 (e[5mC]*eG*e[5mC]*eT*eG*dT*dG*d[5mC]*dT*d[5mC]*dT*d[5mC]*dA*dG*dA*eG*eA*eG*e[5mC]*eA; antisense) [compound 144442]	57%
144443 (eG*eT*eA*eG*e[5mC]*dA*dT*dA*d[5mC]*dT*dG*d[5mC]*dA*dT*dA*eT*eA*e[5mC]*e[5mC]*e[5mC]; antisense) [compound 144443]	51%
144444 (eG*eA*eT*eG*eA*dT*dT*d[5mC]*dA*dA*dA*dA*dT*dG*dA*e[5mC]*eG*e[5mC]*eT*eG; antisense) [compound 144444]	32%
144445 (eG*eA*eT*eT*eT*dG*dA*dG*dA*dG*dA*dG*dG*dT*dA*eT*eA*eA*eG*eT; antisense) [compound 144445]	18%
144446 (eG*eA*eG*eA*eA*dT*dA*dA*d[5mC]*dT*dA*dT*dT*d[5mC]*dT*eG*eA*e[5mC]*eT*eG; antisense) [compound 144446]	28%
144447 (eG*eA*eG*e[5mC]*eT*dT*d[5mC]*dA*dT*dA*dT*dA*d[5mC]*dA*dT*eT*eG*eA*eT*e[5mC]; antisense) [compound 144447]	70%
144448 (e[5mC]*e[5mC]*e[5mC]*eG*eT*d[5mC]*dA*dT*dG*d[5mC]*dT*dT*dA*dA*dG*eG*eA*eA*eG*eT) [compound 144448]	49%
144449 (eA*eT*eG*eT*eG*d[5mC]*d[5mC]*dT*dT*d[5mC]*dT*dA*d[5mC]*d[5mC]*dT*eT*eA*eA*eG*eG) [compound 144449]	35%
AATATCACAGGTCAGTTTCA (antisense eA*eA*eT*eA*eT*d[5mC]*dA*d[5mC]*dA*dG*dG*dT*d[5mC]*dA*dG*eT*eT*eT*e[5mC]*eA) [ISIS 144440]	at least 30%
AGTGTCCCAGTGATGATCAT (antisense eA*eG*eT*eG*eT*d[5mC]*d[5mC]*d[5mC]*dA*dG*dT*dG*dA*dT*dG*eA*eT*e[5mC]*eA*eT) [ISIS 144423]	at least 30%
ATGTGCCTTCTACCTTAAGG (antisense eA*eT*eG*eT*eG*d[5mC]*d[5mC]*dT*dT*d[5mC]*dT*dA*d[5mC]*d[5mC]*dT*eT*eA*eA*eG*eG) [ISIS 144449]	at least 30%
CAGTGCCCAGCTAGGAGTCA (antisense e[5mC]*eA*eG*eT*eG*d[5mC]*d[5mC]*d[5mC]*dA*dG*d[5mC]*dT*dA*dG*dG*eA*eG*eT*e[5mC]*eA) [ISIS 144407]	at least 30%
CATGCCACATTGTGTCCCTT (antisense e[5mC]*eA*eT*eG*e[5mC]*d[5mC]*dA*d[5mC]*dA*dT*dT*dG*dT*dG*dT*e[5mC]*e[5mC]*e[5mC]*eT*eT) [ISIS 144441]	at least 30%
CCAGTTGTGTGACCTTTAAC (antisense e[5mC]*e[5mC]*eA*eG*eT*dT*dG*dT*dG*dT*dG*dA*d[5mC]*d[5mC]*dT*eT*eT*eA*eA*e[5mC]) [ISIS 144410]	at least 30%
CCCGTCATGCTTAAGGAAGT (antisense e[5mC]*e[5mC]*e[5mC]*eG*eT*d[5mC]*dA*dT*dG*d[5mC]*dT*dT*dA*dA*dG*eG*eA*eA*eG*eT) [ISIS 144448]	at least 30%
CCTGGAGGATAATGCTGCTG (antisense e[5mC]*e[5mC]*eT*eG*eG*dA*dG*dG*dA*dT*dA*dA*dT*dG*d[5mC]*eT*eG*e[5mC]*eT*eG) [ISIS 144422]	at least 30%
CGCTGGAAGTACTATCCGGC (antisense e[5mC]*eG*e[5mC]*eT*eG*dG*dA*dA*dG*dT*dA*d[5mC]*dT*dA*dT*e[5mC]*e[5mC]*eG*eG*e[5mC]) [ISIS 144439]	at least 30%
CGCTGTGCTCTCAGAGAGCA (antisense e[5mC]*eG*e[5mC]*eT*eG*dT*dG*d[5mC]*dT*d[5mC]*dT*d[5mC]*dA*dG*dA*eG*eA*eG*e[5mC]*eA) [ISIS 144442]	at least 30%
GAGCTTCATATACATTGATC (antisense eG*eA*eG*e[5mC]*eT*dT*d[5mC]*dA*dT*dA*dT*dA*d[5mC]*dA*dT*eT*eG*eA*eT*e[5mC]) [ISIS 144447]	at least 30%
GATTCCTCCATAGTAAGGCC (antisense eG*eA*eT*eT*e[5mC]*d[5mC]*dT*d[5mC]*d[5mC]*dA*dT*dA*dG*dT*dA*eA*eG*eG*e[5mC]*e[5mC]) [ISIS 144413]	at least 30%
